The values that follow come from PMC3748103, “Characterization of FKGK18 as Inhibitor of Group VIA Ca^2+-Independent Phospholipase A2 (iPLA2β): Candidate Drug for Preventing Beta-Cell Apoptosis and Diabetes” (PLoS ONE, 2013).

The structures appear in SMILES notation.

In this assay the target is T1, iPLA2β (Group VIA Ca^2+-independent phospholipase A2) (Rattus norvegicus, UniProt P97570).
T1 construct: gene Pla2g6; iPLA2β overexpressed in INS-1 insulinoma cells (OE), cytosol
T1 sequence (P97570 1-807): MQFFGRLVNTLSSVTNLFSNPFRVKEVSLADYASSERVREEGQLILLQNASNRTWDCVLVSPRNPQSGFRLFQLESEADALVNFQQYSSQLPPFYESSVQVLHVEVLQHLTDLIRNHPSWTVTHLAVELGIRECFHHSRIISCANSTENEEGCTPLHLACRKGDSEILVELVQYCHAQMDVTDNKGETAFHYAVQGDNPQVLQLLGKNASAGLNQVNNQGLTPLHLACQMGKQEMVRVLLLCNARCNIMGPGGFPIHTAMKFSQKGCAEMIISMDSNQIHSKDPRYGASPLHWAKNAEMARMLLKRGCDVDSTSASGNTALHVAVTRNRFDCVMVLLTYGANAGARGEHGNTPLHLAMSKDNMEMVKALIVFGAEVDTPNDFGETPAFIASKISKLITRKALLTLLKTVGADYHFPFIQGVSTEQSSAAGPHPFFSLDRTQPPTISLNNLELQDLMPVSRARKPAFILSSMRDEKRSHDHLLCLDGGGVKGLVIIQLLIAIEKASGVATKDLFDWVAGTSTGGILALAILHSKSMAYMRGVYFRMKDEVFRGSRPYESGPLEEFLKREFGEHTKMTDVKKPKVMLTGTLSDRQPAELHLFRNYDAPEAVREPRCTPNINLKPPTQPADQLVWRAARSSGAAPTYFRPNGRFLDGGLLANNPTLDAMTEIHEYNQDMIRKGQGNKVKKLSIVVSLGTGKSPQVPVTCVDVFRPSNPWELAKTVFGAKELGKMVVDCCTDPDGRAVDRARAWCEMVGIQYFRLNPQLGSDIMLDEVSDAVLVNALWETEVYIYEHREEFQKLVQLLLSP
Briefly: radioactive PLA2 activity assay ([…]-PAPC) in cytosol of iPLA2β-overexpressing INS-1 cells. In kind it is biochemical.

Usually IC50 stands for the concentration that gives 50% inhibition. As for `O=C1O/C(=C/Br)CC[C@@H]1c1cccc2ccccc12` [R-BEL, (E)-6-(bromo-methylene) tetrahydro-3-(1-naphthalenyl)-2H-pyran-2-one], the IC50 is around 3 µM.

On to `O=C(CCCCc1ccc2ccccc2c1)C(F)(F)F` [FKGK18, 1,1,1-trifluoro-6-(naphthalen-2-yl)hexan-2-one], for which the IC50 was around 0.05 µM.
